Test results reported in US4390528A, “Tuftsinyl-tuftsin” (Research Corporation, priority 1981, dated 1983).
Where a SMILES comes first, the peptide text is derived from it. Where no end group is shown, it is not given here.

Experiments:
[1] = test system: therapeutic action of tuftsin; test: Inhibition of the therapeutic action of tuftsin; settings: tripeptide formed by degradation of administered tuftsin
Experimental: Thus, if large amounts of tuftsin are administered, for example, parenterally a rather complex series of reactions takes place. One is the desired therapeutically useful reaction, another is the formation of the inhibitory tripeptide and the third is the inhibitory reaction. The rate of the last two reactions is, unfortunately, so high that the administration of higher doses of the therapeutic agent is counterproductive. As more is administered, more of the inhibitory tripeptide is produced and less of the tuftsin is available to fulfill its therapeutic purpose.

[2] = test system: blood polymorphonuclear leucocytes; settings: especially neutrophilic leucocytes, in mammals, known for some time; cited from earlier work
316 mouse melanoma cells = test: Antineoplastic activity against 316 mouse melanoma cells
[3] = test system: Cloudman S-91 mouse melanoma cells; test: Antineoplastic activity against Cloudman S-91 mouse melanoma cells
[4] = test system: L1210 mouse leukemia cells; test: Antineoplastic activity against L1210 mouse leukemia cells
[5] = test system: blood polymorphonuclear leucocytes; test: Stimulation of phagocytosis and pinocytosis; assay type: cell-based, mammals
Text: It also stimulates pinocytosis to the same extent allowing the cells to obtain nourishment from the surrounding medium.

L1210 cells = test: Survival of DBA/2 mice injected intraperitoneally with L1210 cells; assay type: in vivo, mouse; settings: 25 DBA/2 mice, 20 μg intraperitoneally on days -7, -4 and 0; L1210 cells i.p. on day 0; control animals all dead by day 18
Experimental: In one experiment, 25 DBA/2 mice were injected each with 20 μg of the octapeptide intraperitoneally on days -7, -4 and 0. On the last mentioned day, L1210 cells were also injected intraperitoneally in experimental animals and solvent buffer alone in 25 control mice. The animals were observed daily and deaths recorded. The control animals were all dead by day 18, whereas the treated mice survived 32 days.

N=C(N)NCCC[C@H](NC(=O)[C@@H]1CCCN1C(=O)[C@@H](N)CCCCN)C(=O)O [lysyl-prolyl-arginine] (H-Lys-Pro-Arg-OH)
effect on the therapeutic action of tuftsin [1]: acts as an inhibitor

L-threonyl-L-lysyl-L-propyl-L-arginine [tuftsin]
stimulation of phagocytosis and destruction of bacteria by leucocytes [2]: has the ability to stimulate phagocytosis

TKPRTKPR [Tuftsinyl-tuftsin, L-Threonyl-L-Lysyl-L-Prolyl-L-Arginyl-L-Threonyl-L-Lysyl-L-Prolyl-L-Arginine]
antineoplastic activity (316 mouse melanoma cells): manifests antineoplastic activity
antineoplastic activity [3]: manifests antineoplastic activity
antineoplastic activity [4]: manifests antineoplastic activity
stimulation of phagocytosis and pinocytosis [5]: stimulator of phagocytosis and pinocytosis
survival of treated mice (L1210 cells): 32 days
